Experimental data taken from patent publication US10537103B2, “Antibacterial composition containing an isomer mixture of monosaccharide alkyl monoacetals or monoethers” (TEREOS STARCH & SWEETENERS BELGIUM, priority 2014, dated 2020).
Converted amounts (≈) assume the structure as drawn. Like-named read-outs stand apart in the source and are kept apart here.

Tests used:
[1] = tested on: E. faecalis strains (ATCC 29212, 9901, 1801); test: MIC on a wider panel of strains (Example 10), microdilution; type: cell-based; settings: Enterococcus faecalis, ATCC29212
Experimental: The cultures studied, freshly isolated (after incubation on a blood agar at 37° C. for 18 h), are taken up in sterile water (10 mL) until obtaining a 0.5 McFarland (Mc) suspension i.e. 1 to 1 to 2×10^8 CFU (bacteria)/cm^3. The bacterial suspension was then diluted to obtain a final concentration of 1×10^6 CFU/cm^3. Each well contains an identical quantity of Mueller-Hinton medium (a rich medium for bacterial culture) and bacteria with final [concentration of] 0.5×10^6 CFU/cm^3. The test compounds of interest are solubilized in ethanol or DMSO at 25 mg/mL before being diluted to different concentrations two by two. On the multiwell plate, a first series has been planned comprising the culture medium without the test compound of interest. It corresponds to the growth control (control well). These controls serve as reference for comparing bacterial growth with that of the subsequent wells comprising different concentrations of the test compound of interest. The second series of wells comprises the mother solution for the test compound of interest for a concentration in the wells of 256 mg/L (7 mM). Each series of wells was diluted two by two until the last series for a final concentration of 0.25 mg/L (0.0007 mM). Each concentration is duplicated in the same plate. The plate is incubated for 18 h at 37° C. […] If there is antibacterial activity, the bacterial growth is inhibited, which means that no turbidity or bacterial residue is present. The minimum inhibitory concentrations (MIC) are tested on Gram-positive bacterial strains according to the recommendations of the “Clinical Laboratory Standards Institute” (Clinical-Laboratory-Standards-Institute, 6th ed. Approved standard M100-S17. CLSI, Wayne, Pa., 2007). The clinical strains have been isolated in the Hospice de Lyon. Enterococci: E. faecalis (ATCC® 29212™), clinical enterococci strains E. faecalis isolated from urines: strain 015206179901 (hereinafter 9901), strain 015205261801 (hereinafter 1801) The cultures studied, freshly isolated (after incubation on a blood agar at 37° C. for 18 h), are taken up in sterile water (10 mL) until obtaining a 0.5 McFarland (Mc) suspension i.e. At 10^8 CFU (bacteria)/cm^3. The bacterial suspension was then diluted to obtain a final concentration of 10^6 CFU/cm^3.

[2] = tested on: E. faecium strains (CIP 103510, Van A, 1401); test: as above; type: cell-based; settings: Enterococcus faecium, CIP103510
Experimental: (§1) The cultures studied, freshly isolated (after incubation on a blood agar at 37° C. for 18 h), are taken up in sterile water (10 mL) until obtaining a 0.5 McFarland (Mc) suspension i.e. 1 to 1 to 2×10^8 CFU (bacteria)/cm^3. The bacterial suspension was then diluted to obtain a final concentration of 1×10^6 CFU/cm^3.
(§2) Each well contains an identical quantity of Mueller-Hinton medium (a rich medium for bacterial culture) and bacteria with final [concentration of] 0.5×10^6 CFU/cm^3.
(§3) The test compounds of interest are solubilized in ethanol or DMSO at 25 mg/mL before being diluted to different concentrations two by two. On the multiwell plate, a first series has been planned comprising the culture medium without the test compound of interest. It corresponds to the growth control (control well). These controls serve as reference for comparing bacterial growth with that of the subsequent wells comprising different concentrations of the test compound of interest. The second series of wells comprises the mother solution for the test compound of interest for a concentration in the wells of 256 mg/L (7 mM). Each series of wells was diluted two by two until the last series for a final concentration of 0.25 mg/L (0.0007 mM). Each concentration is duplicated in the same plate. The plate is incubated for 18 h at 37° C. […] If there is antibacterial activity, the bacterial growth is inhibited, which means that no turbidity or bacterial residue is present.
(§4) The minimum inhibitory concentrations (MIC) are tested on Gram-positive bacterial strains according to the recommendations of the “Clinical Laboratory Standards Institute” (Clinical-Laboratory-Standards-Institute, 6th ed. Approved standard M100-S17. CLSI, Wayne, Pa., 2007). The clinical strains have been isolated in the Hospice de Lyon.
Enterococci: E. faecium (CIP 103510), clinical strains of Enterococci E. faecium: Van A 0151850763 (hereinafter Van A); strain 015 205731401 (hereinafter 1401),
as §1, with “At 10^8” for “1 to 1 to 2×10^8”, “10^6” for “1×10^6”

[3] = tested on: Staphylococcus S. aureus strains (ATCC, methicillin-resistant, daptomycin-resistant); test: as above; type: cell-based
Experimental: as §1, §2, §3, §4
Staphylococci S. aureus: ATCC® 29213™, ATCC 25923,
as §1, with “At 10^8” for “1 to 1 to 2×10^8”, “10^6” for “1×10^6”

[4] = E. faecalis ATCC 29212, read-out: MIC Enterococcus ATCC 29212
[5] = E. faecium CIP 103510, read-out: MIC Enterococcus CIP 103510
[6] = E. faecium clinical strain Van A 0151850763, read-out: MIC Enterococcus Van A
[7] = methicillin-resistant, HT 2002-0417, read-out: MIC S. aureus HT 2002-0417
[8] = methicillin-resistant, HT 2006-1004, read-out: MIC S. aureus HT 2006-1004
[9] = methicillin-resistant, LY 199-0053, read-out: MIC S. aureus LY 199-0053
[10] = methicillin-resistant, Lac-Deleo USA 300, read-out: MIC S. aureus USA 300
[11] = methicillin-resistant, MU 3, read-out: MIC S. aureus MU 3
[12] = strain ATCC 25923, read-out: MIC S. aureus ATCC 25923
[13] = strain ATCC 29213, read-out: MIC S. aureus ATCC 29213

SMILES | melting point | MIC [1, 4] | MIC [2, 5] | MIC [2, 6] | MIC ([3]; Staphylococcus, all strains of Table 6, read-out: MIC, staphylococcus strains tested) | MIC [3, 7] | MIC ([3]; methicillin-resistant, HT 2004-0012, read-out: MIC S. aureus HT 2004-0012) | MIC [3, 8] | MIC [3, 9] | MIC [3, 10] | MIC [3, 11] | MIC [3, 12] | MIC [3, 13] | MIC ([1]; E. faecalis clinical strain 015205261801, from urines, read-out: MIC Enterococcus 1801) | MIC ([1]; E. faecalis clinical strain 015206179901, from urines, read-out: MIC Enterococcus 9901) | MIC ([2]; E. faecium clinical strain 015 205731401, read-out: MIC Enterococcus 1401) | MIC ([3]; daptomycin-resistant, ST 2014 1288, read-out: MIC S. aureus ST 2014 1288) | MIC ([3]; daptomycin-resistant, ST 2015-0188, read-out: MIC S. aureus ST 2015 0188) | MIC ([3]; daptomycin-resistant, ST 2015-0989, read-out: MIC S. aureus ST 2015 0989)
CCCCCCCCCCCC1OCC2O[C@H](OC)C(O)C(O)[C@@H]2O1 (stereo partly drawn) [Compound 1e, Methyl 4,6-O-Dodecylidene α-D-glucopyranoside] | 69 °C | 256 µg/mL (≈ 710 µM) | 256 µg/mL (≈ 710 µM) | 256 µg/mL (≈ 710 µM) | > 256 µg/mL | 256 µg/mL (≈ 710 µM) | 256 µg/mL (≈ 710 µM) | 256 µg/mL (≈ 710 µM) | 256 µg/mL (≈ 710 µM) | 256 µg/mL (≈ 710 µM) | 256 µg/mL (≈ 710 µM) | 256 µg/mL (≈ 710 µM) | 256 µg/mL (≈ 710 µM) | – | – | – | – | – | –
CCCCCCCCCCCC1OCC2O[C@@H](OC)C(O)C(O)[C@@H]2O1 (stereo partly drawn) [Compound 1f, Methyl 4,6-O-Dodecylidene β-D-glucopyranoside] | 84 °C | 64 µg/mL (≈ 178 µM) | 32 µg/mL (≈ 88.8 µM) | 32 µg/mL (≈ 88.8 µM) | – | 128 µg/mL (≈ 355 µM) | – | 64 µg/mL (≈ 178 µM) | 64 µg/mL (≈ 178 µM) | 64 µg/mL (≈ 178 µM) | 64 µg/mL (≈ 178 µM) | 64 µg/mL (≈ 178 µM) | 64 µg/mL (≈ 178 µM) | 8 µg/mL (≈ 22.2 µM) | 32 µg/mL (≈ 88.8 µM) | 16 µg/mL (≈ 44.4 µM) | 64 µg/mL (≈ 178 µM) | 64 µg/mL (≈ 178 µM) | 64 µg/mL (≈ 178 µM)
